Measurements reported in ChEMBL document CHEMBL4382231, “Chemical preparation, biological evaluation and 3D-QSAR of ethoxysulfuron derivatives as novel antifungal agents targeting acetohydroxyacid synthase” (Eur J Med Chem, 2019).

Legend:
Candida albicans [1] = assay: Antifungal activity against Candida albicans SC5314 cultured in RPMI 1640 media after 24 hrs by broth microdilution method; type: functional; settings: SC5314, 24 h
Candida albicans [2] = assay: Antifungal activity against Candida albicans SC5314 cultured in YNB media after 24 hrs by broth microdilution method; type: functional; settings: SC5314, 24 h
[3] = Inhibition of Candida albicans AHAS catalytic subunit using pyruvate as substrate measured after 30 mins by colorimetric method

| Compound | MIC (Candida albicans [1]) [µg/mL] | MIC (Candida albicans [2]) [µg/mL] | Ki [3] [nM] | pKi [3] |
| --- | --- | --- | --- | --- |
| Cc1cc(Cl)nc(NC(=O)[N-]S(=O)(=O)Oc2ccc([N+](=O)[O-])cc2)n1.[Na+] | > 100 | > 100 | > 50000 |  |
| Cc1cc(Cl)nc(NC(=O)[N-]S(=O)(=O)Oc2ccccc2C(=O)OC(C)C)n1.[Na+] | > 100 | > 100 | 22900 | 4.64 |
| COc1cc(C)nc(NC(=O)[N-]S(=O)(=O)Oc2ccccc2C(=O)OCC(F)(F)F)n1.[Na+] | > 100 | 20 | 310 | 6.51 |
| Cc1cc(C)nc(NC(=O)[N-]S(=O)(=O)Oc2ccccc2C(=O)OC(C)C)n1.[Na+] | > 100 | > 100 | 9840 | 5 |
| CCOC(=O)c1ccc(OS(=O)(=O)[N-]C(=O)Nc2nc(OC)cc(OC)n2)cc1.[Na+] | > 100 | > 100 | > 50000 |  |
| COc1cc(Cl)nc(NC(=O)[N-]S(=O)(=O)Oc2ccccc2OCCCl)n1.[Na+] | > 100 | > 100 | 87 | 7.06 |
| COc1cc(I)nc(NC(=O)[N-]S(=O)(=O)Oc2ccccc2[N+](=O)[O-])n1.[Na+] | > 100 | 40 | 523 | 6.28 |
| COc1cc(Br)nc(NC(=O)[N-]S(=O)(=O)Oc2ccccc2OCCI)n1.[Na+] | > 100 | > 100 | 478 | 6.33 |
| COc1cc(Br)nc(NC(=O)[N-]S(=O)(=O)Oc2ccccc2C(=O)OCCI)n1.[Na+] | > 100 | > 100 | 980 | 6.01 |
| COc1cc(I)nc(NC(=O)[N-]S(=O)(=O)Oc2ccccc2OCCI)n1.[Na+] | > 100 | 20 | 637 | 6.18 |
| Cc1cc(C)nc(NC(=O)[N-]S(=O)(=O)Oc2ccccc2OCCCl)n1.[Na+] | > 100 | > 100 | 822 | 6.08 |
| CCOC(=O)c1cccc(OS(=O)(=O)[N-]C(=O)Nc2nc(C)cc(OC)n2)c1.[Na+] | > 100 | > 100 | 1640 | 5.78 |
| CCOC(=O)c1ccccc1OS(=O)(=O)[N-]C(=O)Nc1nc(C)cc(C)n1.[Na+] | > 100 | > 100 | 750 | 6.13 |
| COc1cc(C)nc(NC(=O)[N-]S(=O)(=O)Oc2ccc([N+](=O)[O-])cc2)n1.[Na+] | > 100 | > 100 | > 50000 |  |
| COc1cc(OC)nc(NC(=O)[N-]S(=O)(=O)Oc2ccccc2C(=O)Oc2ccccc2)n1.[Na+] | > 100 | > 100 | 5860 | 5.23 |
| COC(=O)c1ccccc1OS(=O)(=O)[N-]C(=O)Nc1nc(Br)cc(OC)n1.[Na+] | > 100 | > 100 | 643 | 6.28 |
| COc1cc(OC)nc(NC(=O)[N-]S(=O)(=O)Oc2ccccc2C(=O)OCC(F)(F)F)n1.[Na+] | > 100 | 10 | 78 | 7.11 |
| CCCOC(=O)c1ccccc1OS(=O)(=O)[N-]C(=O)Nc1nc(C)cc(Cl)n1.[Na+] | > 100 | > 100 | 35500 |  |
| CCOC(=O)c1ccccc1OS(=O)(=O)[N-]C(=O)Nc1nc(Cl)cc(OC)n1.[Na+] | > 100 | 40 | 7.5 | 8.12 |
| COC(=O)c1ccccc1OS(=O)(=O)[N-]C(=O)Nc1nc(Cl)cc(OC)n1.[Na+] | > 100 | > 100 | 55 | 7.26 |
| COc1cc(Cl)nc(NC(=O)[N-]S(=O)(=O)Oc2ccc([N+](=O)[O-])cc2)n1.[Na+] | > 100 | > 100 | 28000 | 4.55 |
| Cc1cc(C)nc(NC(=O)[N-]S(=O)(=O)Oc2ccccc2C(=O)OCCI)n1.[Na+] | > 100 | > 100 | 15000 | 4.82 |
| COc1cc(Br)nc(NC(=O)[N-]S(=O)(=O)Oc2ccccc2C(=O)OC(C)C)n1.[Na+] | > 100 | > 100 | 1510 | 5.82 |
| Cc1cc(C)nc(NC(=O)[N-]S(=O)(=O)Oc2ccccc2C(=O)OCCCl)n1.[Na+] | > 100 | > 100 | 3360 | 5.48 |
| COc1cc(Br)nc(NC(=O)[N-]S(=O)(=O)Oc2ccccc2[N+](=O)[O-])n1.[Na+] | > 100 | > 100 | 247 | 6.6 |
| COc1cc(Br)nc(NC(=O)[N-]S(=O)(=O)Oc2ccccc2OCCCl)n1.[Na+] | > 100 | > 100 | 69 | 7.13 |
| COc1cc(Br)nc(NC(=O)[N-]S(=O)(=O)Oc2ccccc2C(=O)OCCCl)n1.[Na+] | > 100 | > 100 | 379 | 6.41 |
| COc1cc(Cl)nc(NC(=O)[N-]S(=O)(=O)Oc2ccccc2OCCI)n1.[Na+] | > 100 | > 100 | 583 | 6.23 |

| Compound | MIC (Candida albicans [1]) [µg/mL] | MIC (Candida albicans [2]) [µg/mL] | Ki [3] [nM] | pKi [3] |
| --- | --- | --- | --- | --- |
| COC(=O)c1ccccc1S(=O)(=O)NC(=O)Nc1nccc(C)n1 [MONOSULFURON ESTER] |  |  | 16800 |  |
| Cc1cc(C)nc(NC(=O)[N-]S(=O)(=O)Oc2ccccc2OCCI)n1.[Na+] | > 100 | > 100 | 3570 | 5.45 |
| COc1cc(I)nc(NC(=O)[N-]S(=O)(=O)Oc2ccccc2C(=O)OCCCl)n1.[Na+] | > 100 | > 100 | 740 | 6.13 |
| CCCOC(=O)c1ccccc1OS(=O)(=O)[N-]C(=O)Nc1nc(OC)cc(OC)n1.[Na+] | > 100 | > 100 | 260 | 6.59 |
| CCOC(=O)c1ccccc1OS(=O)(=O)[N-]C(=O)Nc1nc(Br)cc(OC)n1.[Na+] | > 100 | > 100 | 10.8 | 7.96 |
| COc1cc(Cl)nc(NC(=O)[N-]S(=O)(=O)Oc2ccccc2C(=O)OC(C)C)n1.[Na+] | > 100 | > 100 | 4560 | 5.46 |
| Cc1cc(Cl)nc(NC(=O)[N-]S(=O)(=O)Oc2ccccc2C(=O)OCCI)n1.[Na+] | > 100 | > 100 | 2330 | 5.64 |
| CCOC(=O)c1ccccc1OS(=O)(=O)[N-]C(=O)Nc1nc(I)cc(OC)n1.[Na+] | 100 | 10 | 11.5 | 7.91 |
| COc1cc(Cl)nc(NC(=O)[N-]S(=O)(=O)Oc2ccccc2C(=O)OCCI)n1.[Na+] | > 100 | > 100 | 547 | 6.26 |
| COc1cc(C)nc(NC(=O)[N-]S(=O)(=O)Oc2ccccc2C(=O)OCCI)n1.[Na+] | > 100 | > 100 | 610 | 6.21 |
| COc1cc(OC)nc(NC(=O)[N-]S(=O)(=O)Oc2ccccc2C(=O)OCCI)n1.[Na+] | > 100 | > 100 | 95 | 7.02 |
| Cc1cc(Cl)nc(NC(=O)[N-]S(=O)(=O)Oc2ccccc2C(=O)OCCCl)n1.[Na+] | > 100 | > 100 | 761 | 6.09 |
| CCOC(=O)c1cccc(OS(=O)(=O)[N-]C(=O)Nc2nc(C)cc(C)n2)c1.[Na+] | > 100 | > 100 | 36800 | 4.44 |
| COc1cc(OC)nc(NC(=O)[N-]S(=O)(=O)Oc2ccccc2C(=O)OC(C)C)n1.[Na+] | > 100 | 20 | 405 | 6.4 |
| Cc1cc(Cl)nc(NC(=O)[N-]S(=O)(=O)Oc2ccccc2OCCCl)n1.[Na+] | > 100 | > 100 | 95 | 7.02 |
| COc1cc(Cl)nc(NC(=O)[N-]S(=O)(=O)Oc2ccccc2[N+](=O)[O-])n1.[Na+] | > 100 | > 100 | 265 | 6.58 |
| CCOC(=O)c1ccccc1OS(=O)(=O)[N-]C(=O)Nc1nc(C)cc(Cl)n1.[Na+] | > 100 | > 100 | 37.1 | 7.43 |
| CCOC(=O)c1ccc(OS(=O)(=O)[N-]C(=O)Nc2nc(C)cc(Cl)n2)cc1.[Na+] | > 100 | > 100 | > 50000 |  |
| COc1cc(I)nc(NC(=O)[N-]S(=O)(=O)Oc2ccccc2OCCCl)n1.[Na+] | 100 | 10 | 68 | 7.16 |
| CCOC(=O)c1cccc(OS(=O)(=O)[N-]C(=O)Nc2nc(C)cc(Cl)n2)c1.[Na+] | > 100 | > 100 | > 50000 |  |
| COc1cc(C)nc(NC(=O)[N-]S(=O)(=O)Oc2ccccc2OCCCl)n1.[Na+] | 25 | 10 | 78 | 7.1 |
| Cc1cc(C)nc(NC(=O)[N-]S(=O)(=O)Oc2ccc([N+](=O)[O-])cc2)n1.[Na+] | > 100 | > 100 | 5660 | 5.24 |
| COc1cc(Cl)nc(NC(=O)[N-]S(=O)(=O)Oc2ccccc2C(=O)Oc2ccccc2)n1.[Na+] | > 100 | > 100 | 25400 | 4.58 |
| CCCOC(=O)c1ccccc1OS(=O)(=O)[N-]C(=O)Nc1nc(Br)cc(OC)n1.[Na+] | > 100 | > 100 | 758 | 6.16 |
| COC(=O)c1ccccc1OS(=O)(=O)[N-]C(=O)Nc1nc(C)cc(Cl)n1.[Na+] | > 100 | > 100 | 85.5 | 7.06 |
| CCCOC(=O)c1ccccc1OS(=O)(=O)[N-]C(=O)Nc1nc(I)cc(OC)n1.[Na+] | > 100 | > 100 | 862 | 6.06 |
| Cc1cc(Cl)nc(NC(=O)[N-]S(=O)(=O)Oc2ccccc2[N+](=O)[O-])n1.[Na+] | > 100 | 40 | 103 | 6.99 |
